Test results published in ChEMBL document CHEMBL5131425, “Microbial transformation and inhibitory effect assessment of uvaol derivates against LPS and HMGB1 induced NO production in RAW264.7 macrophages” (Bioorg Med Chem Lett, 2022).

Columns and labels:
[1] = Cytotoxicity against mouse RAW264.7 cells assessed as cell viability at 50 uM; format: toxicity, cell-based; settings: read-out: Activity
RAW264.7 [2] = assay: Anti-inflammatory activity in mouse RAW264.7 cells assessed as inhibition of HMGB1-induced NO production; format: functional, cell-based
RAW264.7 [3] = assay: Anti-inflammatory activity in mouse RAW264.7 cells assessed as inhibition of LPS-induced NO production; format: functional, cell-based

Structure (SMILES) | IC50 (RAW264.7 [2]) | IC50 (RAW264.7 [3]) | viability at 50 µM [1]
C[C@H]1[C@H](C)CC[C@]2(CO)CC[C@]3(C)C(=CC[C@@H]4[C@@]5(C)CC[C@H](O)C(C)(C)[C@@H]5CC[C@]43C)[C@H]12 [UVAOL] | > 100 µM | > 100 µM | 103%
C[C@@H]1[C@H]2C3=CC[C@@H]4[C@@]5(C)CC[C@H](O)[C@](C)(CO)[C@@H]5CC[C@@]4(C)[C@]3(C)CC[C@@]2(CO)[C@@H](O)C[C@H]1C(=O)O | 100 µM | > 100 µM | 117%
C[C@H]1[C@H](C(=O)O)[C@@H](O)C[C@]2(CO)CC[C@]3(C)C(=CC[C@@H]4[C@@]5(C)CC[C@H](O)[C@@](C)(CO)[C@@H]5CC[C@]43C)[C@H]12 | > 100 µM | > 100 µM | 124%
C[C@H]1[C@H](C)[C@@H](O)C[C@]2(CO)CC[C@]3(C)C(=CC[C@@H]4[C@@]5(C)CC[C@H](O)C(C)(C)[C@@H]5C[C@H](O)[C@]43C)[C@H]12 | > 100 µM | 2.22 µM | 94.2%

Now those with a lower IC50 (RAW264.7 [2]), led by results:

IC50 (RAW264.7 [2]) | IC50 (RAW264.7 [3]) | Structure (SMILES) | viability at 50 µM [1]
91.6 µM | 0.55 µM | C[C@H]1[C@H](C(=O)O)[C@@H](O)C[C@]2(CO)CC[C@]3(C)C(=CC[C@@H]4[C@@]5(C)CC[C@H](O)[C@](C)(CO)[C@@H]5CC[C@]43C)[C@H]12 | 112%
60.4 µM | 29.9 µM | C[C@@H]1[C@H]2C3=CC[C@@H]4[C@@]5(C)CC[C@H](O)[C@@](C)(CO)[C@@H]5CC[C@@]4(C)[C@]3(C)CC[C@@]2(CO)[C@@H](O)C[C@H]1C(=O)O | 118%
47.2 µM | 4.8 µM | C[C@H]1[C@H](C)[C@@H](O)C[C@@]23CC[C@@]4(C)[C@@]5(C)[C@H](C=C[C@]4(OC2)[C@H]13)[C@@]1(C)CC[C@H](O)C(C)(C)[C@@H]1C[C@@H]5O | 94.2%
7.62 µM | 6.64 µM | CC1(C)[C@@H](OC(=O)CCC(=O)O)CC[C@]2(C)[C@H]3C(=O)C=C4[C@@H]5C[C@@](C)(C(=O)O)CC[C@]5(C)CC[C@@]4(C)[C@]3(C)CC[C@@H]12 [CARBENOXOLONE] | 88.5%
